Assay results taken from patent US10352936B2, “Use of tumor Fas expression to determine response to anti-cancer therapy” (ApopLogic Pharmaceuticals, Inc., priority 2011, dated 2019).

Test system: naturally occurring appendicular osteosarcoma
Assay: Survival of dogs treated with neoadjuvant FasL plus standard of care versus carboplatin standard of care
Type: in vivo, dog
Settings: whole treatment group
Experimental: Without being bound to theory, the principle of this treatment was based on a 10-day delay of therapy. The rationale for a 10-day delay approach was based on our preclinical data showing that there was statistically significant immunologic protection in animals immunized 10 days before challenge, as well as on the practicality of any delay of therapy approach. The experimental therapy was performed on Day 1, and dogs were followed to assess local and/or systemic toxicity for 10 days. At the end of the investigational period, dogs were treated using standard-of-care for OS.
The treatment sequence was as follows: On Day 0—history, physical, CBC, biochemical profile, urinalysis, chest radiographs, +/− bone scan. On Day 1, lesion biopsy and intratumoral injection. On Days 3, 7, and 10, toxicity monitoring with physical exam, CBC, biochemical profile, urinalysis, lameness evaluation and quality of life assessment. Day 10, amputation of affected limb.
Patient selection, treatment, and biological sample preparation were conducted as described in Example 1. Fifty seven dogs were enrolled in the study. Two dogs were diagnosed with intramedullary tumors that were not OS, two dogs were withdrawn from the study, two dogs had pre-existing metastasis, two were lost to follow up, and four died of other causes. The rest of the patients were followed until their death, which was then determined to be disease-related (“died of disease”) or unrelated to disease recurrence (“died of other causes”).
Table 1 depicts disease free interval (DFI), overall survival (OS), and percentage of dogs alive at 200 days following treatment and amputation that were treated with standard of care (carboplatin (carbo) control) and treated with FasL. Additionally, the disease free interval and overall survival of those dogs which had inflammation scores of 1 (low inflammation) as determined by histopathologic evaluation (see Example 1) or inflammation scores of 2-3 (moderate to high inflammation) is depicted. […]

[NH2][Pt]1([NH2])[O]C(=O)C2(CCC2)C(=O)[O]1 [Carbo control, carboplatin]
Disease Free Interval: 213 | Overall Survival: 231 days | % Alive at 200 Days (200 days following treatment and amputation): 56%
